Consider three compounds from publication PMC8714961, “Involvement of P-gp on Reversing Multidrug Resistance Effects of 23-Hydroxybetulinic Acid on Chemotherapeutic Agents” (Frontiers in Pharmacology, 2021).

The subject of data set [1] is P-gp. Kind of data set: MDCK-MDR1 transport of BA/23-HBA with or without verapamil. The following applies: dog. The protocol: (§1) Briefly, MDCK-MDR1 cells (1×10^5/Well) were seeded onto […] pore-size transwell inserts (Millipore, MA, United States) in 24-well plates. Cells were cultured for 5–7 days, when the transepithelial electrical resistance (TEER) values were 120–240 Ω cm^2.
(§2) The cells were rinsed with warmed Hank’s balanced salt solution (HBSS), and the inserts were incubated for 20 min at 37°C. […] Aliquots (50 µl) were taken from the receiver compartment at intervals of 30, 60, 90, and 120 min and replaced with fresh buffer. In the study, verapamil (VER), known P-gp inhibitor, was selected as positive control.
(§3) The apparent permeability values (Papp) were evaluated in all experiments according to the following equation: Papp=dQ/dt/AC0 (1) where A means the insert area and C0 represents the initial concentration. dQ/dt represents the slope of the cumulative content transported during the time course of the period studied.
(§4) The efflux ratio (ER) was detected according to the ratio of Papp as the following equation: ER=Papp(B−A)/Papp(A−B) (2)

The test system of data set [2] is MDCK-MDR1 cell monolayers. The description is as above. The following applies: +VER (verapamil 20 µM) vs without VER. The protocol: as §1, §2, §3, §4
Data set [3] relates to MCF-7/ADR cells. The data set can be described thus: Hoechst assay (apoptosis). The following applies: 20 µM alone, vs control group. Type of data set: cell-based, human. The method, then:
MCF-7/ADR cells were collected and cultured at the density of 2.0 × 10^5/well in 24-well plates. […] The cells were dyed with Hoechst 33,342 (Beyotime, Shanghai, China) in the dark at 37°C for 30 min after washing with phosphate buffered saline (PBS). The morphological changes of the nucleus were evaluated by a fluorescence microscope.

Data set [4] deals with MCF-7/S cells. Kind of data set: ADR/VCR accumulation study in MCF-7/S cells. The following applies: ADR/VCR 5 µM, test compound 0.2, 2, 20 µM, 1 h.
Protocol: MCF-7 cells (1×10^5/Well) were incubated in 24-well plates. […] After 1 h incubation, the compound solution was aspirated to stop further accumulation, and the monolayers were rinsed with cold Hank’s solution for three times. The drug content was detected by lysing the cells with ultrasound, and then the single well lysate was transferred to a plastic EP tube for further analysis. The protein concentration of the cells was measured using Coomassie brilliant blue.
Data set [5] deals with MCF-7/ADR cells. The data set can be described thus: Trypan blue exclusion assay, MCF-7/ADR cells. Type of data set: cell-based. The protocol: (§5) MCF-7 (human breast carcinoma cells) and MCF-7/ADR (P-gp-overexpressing derivative cells) cell lines were obtained from Blood Diseases Hospital, Chinese Academy of Medica ([Shi et al., 2011]). The cells were routinely maintained in RPMI 1640 with 10% heat-inactivated fetal bovine serum (FBS), 1% non-essential amino acid solution, 0.1 mg/ml streptomycin, and 100 units/ml penicillin. Caco-2 cells were purchased from American Type Culture Collection (ATCC, Rockville, MD, United States). Vector-MDCK and MDR1-MDCK cells were purchased from PharmaResources Co., Ltd. (China). Both Caco-2 and MDCK cells were maintained at Dulbecco’s modified Eagle’s medium (DMEM) with 10% FBS, 1% non-essential amino acid solution, 0.1 mg/ml streptomycin, and 100 units/ml penicillin. MCF-7/ADR cells were treated with […] and were cultured in ADR-free medium for more than 14 days before the experiment. All cells were cultured at 37°C in a humidified atmosphere of 5% CO2.
(§6) Trypan blue exclusion assay was used to measure the viability of cells to compounds. Briefly, MCF-7/sensitive (MCF-7/S) and MCF-7/ADR cells were diluted into the density of 0.5×10^4 cells/ml, then cells (1 ml) were seeded in culture plates. […]. The viable and dead cells (stained in blue) were counted by haemacytometer.

Data set [6] has as its system MCF-7/S cells. The data set can be described thus: Trypan blue exclusion assay, MCF-7/S cells. Type of data set: cell-based. The note with it: 0.2, 2 and 20 µM with ADR 0.08 µM or VCR 0.5 µM, 48 h. The method, then: as §5, §6
Data set [7] concerns the target T1, P-gp (Homo sapiens, UniProt P08183). The data set can be described thus: MDCK-MDR1 transport study, inhibition of VCR transport. The following applies: dog, MDCK-MDR1. The method, then: Briefly, MDCK-MDR1 cells (1×10^5/Well) were seeded onto […] pore-size transwell inserts (Millipore, MA, United States) in 24-well plates.
as §2, §3

For data set [8], the target named is T1, P-gp. The following applies: Control: digoxin 5 µM alone, MDCK-MDR1 monolayers.
Protocol: (§7) Briefly, MDCK-MDR1 cells (1×10^5/Well) were seeded onto 0.4 mm pore-size transwell inserts (Millipore, MA, United States) in 24-well plates.
The target of data set [9] is T1, P-gp. The data set can be described thus: in vitro. The following applies: dog, MDCK-MDR1.
Protocol: as §7
[10] abbreviates: MDCK-MDR1, with verapamil 20 µM.

T1 sequence (P08183 whole entry): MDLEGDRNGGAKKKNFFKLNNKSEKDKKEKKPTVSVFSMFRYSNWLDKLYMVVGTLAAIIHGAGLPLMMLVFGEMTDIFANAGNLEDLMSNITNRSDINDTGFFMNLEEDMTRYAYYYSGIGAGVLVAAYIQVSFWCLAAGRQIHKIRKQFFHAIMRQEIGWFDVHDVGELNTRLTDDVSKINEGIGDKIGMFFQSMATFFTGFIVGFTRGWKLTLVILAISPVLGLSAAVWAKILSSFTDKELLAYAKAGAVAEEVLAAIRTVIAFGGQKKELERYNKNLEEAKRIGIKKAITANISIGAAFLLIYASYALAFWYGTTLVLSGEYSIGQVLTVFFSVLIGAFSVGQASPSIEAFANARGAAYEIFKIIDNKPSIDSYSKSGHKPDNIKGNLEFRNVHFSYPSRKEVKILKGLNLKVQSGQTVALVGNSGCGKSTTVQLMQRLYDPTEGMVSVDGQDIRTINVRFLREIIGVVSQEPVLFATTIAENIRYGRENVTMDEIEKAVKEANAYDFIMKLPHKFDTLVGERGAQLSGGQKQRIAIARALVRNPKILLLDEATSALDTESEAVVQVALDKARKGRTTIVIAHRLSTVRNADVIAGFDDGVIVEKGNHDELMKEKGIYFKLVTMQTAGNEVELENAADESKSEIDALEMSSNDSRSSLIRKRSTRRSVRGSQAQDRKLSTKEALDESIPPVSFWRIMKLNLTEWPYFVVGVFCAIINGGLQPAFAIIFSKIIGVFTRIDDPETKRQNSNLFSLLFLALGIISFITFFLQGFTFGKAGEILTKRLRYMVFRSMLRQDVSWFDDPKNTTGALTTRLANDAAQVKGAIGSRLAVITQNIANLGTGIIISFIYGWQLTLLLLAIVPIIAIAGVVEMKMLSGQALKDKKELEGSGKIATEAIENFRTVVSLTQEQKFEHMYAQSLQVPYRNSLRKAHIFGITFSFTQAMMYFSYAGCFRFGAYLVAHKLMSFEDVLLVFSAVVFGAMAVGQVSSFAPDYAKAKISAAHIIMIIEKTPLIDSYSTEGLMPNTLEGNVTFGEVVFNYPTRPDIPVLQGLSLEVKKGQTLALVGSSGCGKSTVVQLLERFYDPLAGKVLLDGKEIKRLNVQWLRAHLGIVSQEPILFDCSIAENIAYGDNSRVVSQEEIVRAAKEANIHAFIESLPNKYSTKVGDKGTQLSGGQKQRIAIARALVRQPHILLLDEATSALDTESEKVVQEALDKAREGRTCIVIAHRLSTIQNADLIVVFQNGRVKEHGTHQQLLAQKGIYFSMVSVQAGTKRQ

The Papp A→B is how fast a substance crosses the layer from the apical side. Read a high Papp A→B as fast passage. As a reminder, the Papp B→A is how fast a substance crosses the layer from the basolateral side. `C=C(C)[C@@H]1CC[C@]2(C(=O)O)CC[C@]3(C)[C@H](CC[C@@H]4[C@@]5(C)CC[C@H](O)C(C)(C)[C@@H]5CC[C@]43C)[C@@H]12` [BA, Betulinic acid]: in data set [1] (MDCK-MDR1), the Papp A→B at 120 min, 0.2 µM was 612 ± 93.6 nm/s; the Papp A→B at 120 min, 2 µM was determined as 54.3 ± 5 nm/s; the Papp A→B at 120 min, 20 µM was found to be 7.2 ± 2.6 nm/s; the Papp B→A at 120 min, 0.2 µM stood at 551 ± 98 nm/s. Also, in data set [1] (MDCK-MDR1), the Papp B→A at 120 min, 2 µM was determined as 65.1 ± 8.1 nm/s and the apparent permeability from basolateral to apical (Papp B→A) at 120 min, 20 µM was 5.9 ± 1.4 nm/s. In [1] (setting [10]), this compound showed a Papp A→B at 120 min, 0.2 µM of 1050 ± 105 nm/s; a Papp A→B at 120 min, 2 µM of 76.5 ± 15.3 nm/s; a Papp A→B at 120 min, 20 µM of 2.6 ± 0.5 nm/s; a Papp B→A at 120 min, 0.2 µM of 621 ± 47.1 nm/s. In [1] (setting [10]), this compound registered a Papp B→A at 120 min, 2 µM of 69 ± 7.6 nm/s and a basolateral-to-apical permeability (Papp B→A) at 120 min, 20 µM of 1.7 ± 0.5 nm/s. Also, in data set [2] (compound 0.2 µM), the “Folds (RE)” value worked out at 0.66. The “Folds (RE)” value in [2] (compound 2 µM) is 0.75. The “Folds (RE)” value in data set [2] (compound 20 µM) is 0.78. The “Number of apoptosis cells, single agent” value in data set [3] is recorded as “not obviously different with the control group”. Moreover, the “Accumulation of ADR/VCR in sensitive MCF-7 cells” value in data set [4] is “little impact was observed”. Also, the “Cytotoxicity of combination exposure with ADR to MCF-7/ADR” value in data set [5] (0–20 µM with ADR 3 µM) is reported as “not observed”. For the same compound, the “Cell toxicity as a single agent” value in data set [5] (0–20 µM, single agent) is “no cell toxicity was detected”. Further, in [6], the “Effect on cytotoxicity of MCF-7/S cells to ADR or VCR” value was “neither 23-HBA nor BA showed significant effects on cytotoxicity”.

As usually defined, the efflux ratio is a quotient of directional permeabilities that is used to spot active efflux. Consider `CC[C@]1(O)C[C@H]2CN(CCc3c([nH]c4ccccc34)[C@@](C(=O)OC)(c3cc4c(cc3OC)N(C=O)[C@H]3[C@@](O)(C(=O)OC)[C@H](OC(C)=O)[C@]5(CC)C=CCN6CC[C@]43[C@@H]65)C2)C1` [VCR, Vincristine, reference compound], for which, in [7], the Papp A→B at 120 min was 3.5 ± 1.7 nm/s, the Papp B→A at 120 min stood at 38.6 ± 7.1 nm/s and the efflux ratio at 120 min amounted to 10.9.

As for `C[C@H]1O[C@@H](O[C@H]2[C@@H](O)C[C@H](O[C@H]3[C@@H](O)C[C@H](O[C@H]4CC[C@@]5(C)[C@H](CC[C@@H]6[C@@H]5C[C@@H](O)[C@]5(C)[C@@H](C7=CC(=O)OC7)CC[C@]65O)C4)O[C@@H]3C)O[C@@H]2C)C[C@H](O)[C@@H]1O` [digoxin, reference compound], the “RE (net efflux) of digoxin” value in [8] was found to be 36.56. For the same compound, the apical-to-basolateral permeability (Papp A→B) at 120 min, 5 µM in [9] is 3.1 ± 0.5 nm/s.
